In the first assay the test system is tau protein. The assay can be described thus: Tau protein in vitro degradation assay (Western blot, Tau-13 antibody). Type of assay: cell-based, human. As to conditions: SK-N-SH cells; 72 hours of incubation; tested at 300 nM, 100 nM, 33 nM and 11 nM; Western blot, Tau-13 antibody. The procedure:
Tau Protein In Vitro Degradation Assay
To determine effect of PROTACs on tau protein degradation SK-N-SH cells were seeded in a 24-well tissue culture-treated plate for at least 18-hours prior to compound addition. Tau PROTACs were evaluated for tau degradation by lysing the cells in lysis buffer with protease inhibitors following a 72-hour incubation with tau PROTACs at 1000 nM, 300 nM and 100 nM for Table 1 and 300 nM, 100 nM, 33 nM and 11 nM for Table 2. Cell lysates were run on standard SDS-PAGE gels, and tau levels were detected by Western blotting using Tau-13 antibody from Abcam (Cambridge, UK) that binds to all forms of human tau.
As for `Cn1c2ccncc2c2ccc(-c3ccc(O[C@H]4C[C@H](Oc5ccc(C#CCCCCOc6ccc7c(c6)C(=O)N(C6CCC(=O)NC6=O)C7=O)nn5)C4)nc3)cc21` (some centres unmarked) [Compound 134, 2-(2,6-dioxopiperidin-3-yl)-5-((6-(6-((1r,3r)-3-((5-(5-methyl-5H-pyrido[4,3-b]indol-7-yl)pyridin-2-yl)oxy)cyclobutoxy)pyridazin-3-yl)hex-5-yn-1-yl)oxy)isoindoline-1,3-dione], the “Degradation activity* (highest amount of degradation observed at any dosage; tau protein remaining)” value is “B (≤80% and >50% tau protein remaining after 72 hours of incubation with the test compound)”. Turning to `Cn1c2ccncc2c2ccc(-c3ccc(OCCOCCOCCOCCOCCOCCOc4ccc5c(c4)C(=O)N(C4CCC(=O)NC4=O)C5=O)nc3)cc21` (centres unmarked) [Compound 131, 2-(2,6-dioxopiperidin-3-yl)-5-((17-((5-(5-methyl-5H-pyrido[4,3-b]indol-7-yl)pyridin-2-yl)oxy)-3,6,9,12,15-pentaoxaheptadecyl)oxy)isoindoline-1,3-dione], the “Degradation activity* (highest amount of degradation observed at any dosage; tau protein remaining)” value was “A (≤50% tau protein remaining after 72 hours of incubation with the test compound)”.

As for `Cn1c2ccncc2c2ccc(-c3ccc(CCCN4CCN(CCCCCOc5ccc6c(c5)CN(C5CCC(=O)NC5=O)C6=O)CC4)nc3)cc21` (centres unmarked) [Compound 62, 3-(5-((5-(4-(3-(5-(5-methyl-5H-pyrido[4,3-b]indol-7-yl)pyridin-2-yl)propyl)piperazin-1-yl)pentyl)oxy)-1-oxoisoindolin-2-yl)piperidine-2,6-dione], the “Degradation activity* (highest amount of degradation observed at any dosage; tau protein remaining)” value is “C (>80% tau protein remaining after 72 hours of incubation with the test compound)”. Take `Cc1ncsc1-c1ccc(CNC(=O)[C@@H]2C[C@@H](O)CN2C(=O)[C@H](C(C)C)N2Cc3ccccc3C2=O)c(OCCOCCOCCOCCOCCOc2ccc(-c3ccc4c(c3)[nH]c3ccncc34)cn2)c1` [Compound 201, (2S,4R)—N-(2-((14-((5-(5H-pyrido[4,3-b]indol-7-yl)pyridin-2-yl)oxy)-3,6,9,12-tetraoxatetradecyl)oxy)-4-(4-methylthiazol-5-yl)benzyl)-4-hydroxy-1-((S)-3-methyl-2-(1-oxoisoindolin-2-yl)butanoyl)pyrrolidine-2-carboxamide]: the “Degradation activity (tau protein remaining; highest amount of degradation observed at any dosage)” value is on record as “C (>80% tau protein remaining after 72 hours of incubation with the test compound)”.

Turning to `Cn1c2ccncc2c2ccc(-c3ccc(OCCCCOCCCCN4CC5(CC(Oc6ccc7c(c6)C(=O)N(C6CCC(=O)NC6=O)C7=O)C5)C4)nc3)cc21` (centres unmarked) [Compound 116, 2-(2,6-dioxopiperidin-3-yl)-5-((2-(4-(4-((5-(5-methyl-5H-pyrido[4,3-b]indol-7-yl)pyridin-2-yl)oxy)butoxy)butyl)-2-azaspiro[3.3]heptan-6-yl)oxy)isoindoline-1,3-dione], the “Degradation activity* (highest amount of degradation observed at any dosage; tau protein remaining)” value was “C (>80% tau protein remaining after 72 hours of incubation with the test compound)”. Still for that read-out and setting: as for `Cn1c2ccncc2c2ccc(-c3ccc(O[C@H]4C[C@H](Oc5ccc(C#CCCCOc6ccc7c(c6)C(=O)N(C6CCC(=O)NC6=O)C7=O)nc5)C4)nc3)cc21` (some centres unmarked) [Compound 94, 2-(2,6-dioxopiperidin-3-yl)-5-((5-(5-((1r,3r)-3-((5-(5-methyl-5H-pyrido[4,3-b]indol-7-yl)pyridin-2-yl)oxy)cyclobutoxy)pyridin-2-yl)pent-4-yn-1-yl)oxy)isoindoline-1,3-dione], the entry is “C (>80% tau protein remaining after 72 hours of incubation with the test compound)”; as for `O=C1CCC(N2C(=O)c3ccc(OCCCCCN4CCN(CCOCCCc5ccc(-c6ccc7c(c6)[nH]c6ccncc67)cn5)CC4)cc3C2=O)C(=O)N1` (centres unmarked) [Compound 52, 5-((5-(4-(2-(3-(5-(5H-pyrido[4,3-b]indol-7-yl)pyridin-2-yl)propoxy)ethyl)piperazin-1-yl)pentyl)oxy)-2-(2,6-dioxopiperidin-3-yl)isoindoline-1,3-dione], “C (>80% tau protein remaining after 72 hours of incubation with the test compound)”. `O=C1CCC(N2C(=O)c3ccc(OCCCCCN4CCN(CCCc5ccc(-c6ccc7c8cnccc8n(CC(F)(F)F)c7c6)cn5)CC4)cc3C2=O)C(=O)N1` (centres unmarked) [Compound 61, 2-(2,6-dioxopiperidin-3-yl)-5-((5-(4-(3-(5-(5-(2,2,2-trifluoroethyl)-5H-pyrido[4,3-b]indol-7-yl)pyridin-2-yl)propyl)piperazin-1-yl)pentyl)oxy)isoindoline-1,3-dione]: the “Degradation activity* (highest amount of degradation observed at any dosage; tau protein remaining)” value is “C (>80% tau protein remaining after 72 hours of incubation with the test compound)”. Regarding `Cn1c2ccncc2c2ccc(-c3ccc(O[C@H]4C[C@H](OCCCOCCCOC5CN(c6ccc7c(c6)C(=O)N(C6CCC(=O)NC6=O)C7=O)C5)C4)nc3)cc21` (some centres unmarked) [Compound 104, 2-(2,6-dioxopiperidin-3-yl)-5-(3-(3-(3-((1r,3r)-3-((5-(5-methyl-5H-pyrido[4,3-b]indol-7-yl)pyridin-2-yl)oxy)cyclobutoxy)propoxy)propoxy)azetidin-1-yl)isoindoline-1,3-dione], the “Degradation activity* (highest amount of degradation observed at any dosage; tau protein remaining)” value is reported as “A (≤50% tau protein remaining after 72 hours of incubation with the test compound)”. The same measure, in the same setting: the result for `Cn1c2ccncc2c2ccc(-c3ccc(OCCCCCOCCCCCOC4CN(c5ccc6c(c5)C(=O)N(C5CCC(=O)NC5=O)C6=O)C4)nc3)cc21` (centres unmarked) [Compound 79, 2-(2,6-dioxopiperidin-3-yl)-5-(3-((5-((5-((5-(5-methyl-5H-pyrido[4,3-b]indol-7-yl)pyridin-2-yl)oxy)pentyl)oxy)pentyl)oxy)azetidin-1-yl)isoindoline-1,3-dione] reads “A (≤50% tau protein remaining after 72 hours of incubation with the test compound)”.

For `Cn1c2ccncc2c2ccc(-c3ccc(OC4CC5(C4)CN(CCCCOCCCCOc4ccc6c(c4)C(=O)N(C4CCC(=O)NC4=O)C6=O)C5)nc3)cc21` (centres unmarked) [Compound 107, 2-(2,6-dioxopiperidin-3-yl)-5-(4-(4-(6-((5-(5-methyl-5H-pyrido[4,3-b]indol-7-yl)pyridin-2-yl)oxy)-2-azaspiro[3.3]heptan-2-yl)butoxy)butoxy)isoindoline-1,3-dione], the “Degradation activity* (highest amount of degradation observed at any dosage; tau protein remaining)” value is listed as “C (>80% tau protein remaining after 72 hours of incubation with the test compound)”. As for `Cn1c2ccncc2c2ccc(-c3ccc(C#CCN4CCN(CCCOC5CN(c6ccc7c(c6)C(=O)N(C6CCC(=O)NC6=O)C7=O)C5)CC4)nc3)cc21` (centres unmarked) [Compound 76, 2-(2,6-dioxopiperidin-3-yl)-5-(3-(3-(4-(3-(5-(5-methyl-5H-pyrido[4,3-b]indol-7-yl)pyridin-2-yl)prop-2-yn-1-yl)piperazin-1-yl)propoxy)azetidin-1-yl)isoindoline-1,3-dione], the “Degradation activity* (highest amount of degradation observed at any dosage; tau protein remaining)” value is given as “C (>80% tau protein remaining after 72 hours of incubation with the test compound)”.

As for `Cn1c2ccncc2c2ccc(-c3ccc(O[C@H]4C[C@@H](Oc5ccc(CCCCCCOc6ccc7c(c6)C(=O)N(C6CCC(=O)NC6=O)C7=O)cn5)C4)nc3)cc21` (some centres unmarked) [Compound 145, 2-(2,6-dioxopiperidin-3-yl)-5-(6-(6-((1s,3s)-3-(5-(5-methyl-5H-pyrido[4,3-b]indol-7-yl)pyridin-2-yloxy)cyclobutoxy)pyridin-3-yl)hexyloxy)isoindoline-1,3-dione], the “Degradation activity* (highest amount of degradation observed at any dosage; tau protein remaining)” value is “C (>80% tau protein remaining after 72 hours of incubation with the test compound)”. Turning to `Cn1c2ccncc2c2ccc(-c3ccc(CCCOCCOCCOCCOCCOc4ccc5c(c4)C(=O)N(C4CCC(=O)NC4=O)C5=O)nc3)cc21` (centres unmarked) [Compound 74, 2-(2,6-dioxopiperidin-3-yl)-5-((15-(5-(5-methyl-5H-pyrido[4,3-b]indol-7-yl)pyridin-2-yl)-3,6,9,12-tetraoxapentadecyl)oxy)isoindoline-1,3-dione], the “Degradation activity* (highest amount of degradation observed at any dosage; tau protein remaining)” value is on record as “A (≤50% tau protein remaining after 72 hours of incubation with the test compound)”.

The assay is the same for the next values; noted with them: SK-N-SH cells; 72 hours of incubation; tested at 1000 nM, 300 nM and 100 nM.
As for `Cc1ncsc1-c1ccc([C@H](C)NC(=O)[C@@H]2C[C@@H](O)CN2C(=O)[C@@H](NC(=O)COCCCCOc2ccc3nc(-c4ccc(N(C)C)cc4)ccc3c2)C(C)(C)C)cc1` [Compound 34, (2S,4R)-1-((S)-2-(2-(4-(2-(4-(dimethylamino)phenyl)quinolin-6-yloxy)butoxy)acetamido)-3,3-dimethylbutanoyl)-4-hydroxy-N—((S)-1-(4-(4-methylthiazol-5-yl)phenyl)ethyl)pyrrolidine-2-carboxamide], the “Activity* (highest amount of degradation observed at any dosage, as tau protein remaining)” value is “C (>80% tau protein remaining after 72 hours of incubation with the test compound)”. Consider `O=C1CCC(N2Cc3c(OCCOCCOCCOCCOCCOc4ccc(-c5ccc6c(c5)[nH]c5ccncc56)cn4)cccc3C2=O)C(=O)N1` (centres unmarked) [Compound 50, 3-(4-(14-(5-(5H-pyrido[4,3-b]indol-7-yl)pyridin-2-yloxy)-3,6,9,12-tetraoxatetradecyloxy)-1-oxoisoindolin-2-yl)piperidine-2,6-dione], for which the “Activity* (highest amount of degradation observed at any dosage, as tau protein remaining)” value was “A (≤50% tau protein remaining after 72 hours of incubation with the test compound)”.

With `Cc1ncoc1-c1ccc([C@H](C)NC(=O)[C@@H]2C[C@@H](O)CN2C(=O)[C@@H](NC(=O)COCCOCCOCCOCC(=O)N2CCN(c3ccn4c(n3)nc3ccccc34)CC2)C(C)(C)C)cc1` [Compound 22, (2S,4R)-1-((S)-17-(4-(benzo[4,5]imidazo[1,2-a]pyrimidin-2-yl)piperazin-1-yl)-2-(tert-butyl)-4,17-dioxo-6,9,12,15-tetraoxa-3-azaheptadecanoyl)-4-hydroxy-N—((S)-1-(4-(4-methyloxazol-5-yl)phenyl)ethyl)pyrrolidine-2-carboxamide], the “Activity* (highest amount of degradation observed at any dosage, as tau protein remaining)” value is “C (>80% tau protein remaining after 72 hours of incubation with the test compound)”.

(Values after patent US11458123B2 (Arvinas, Inc., priority 2016, dated 2022).)
